From US4499087A, “7-Phenyl-7-phenoxymethyl-hexahydro-1,4-oxazepines and their use” (BASF Aktiengesellschaft, priority 1982, dated 1985) come the findings set out here.

Test [1] concerns norepinephrine uptake. The test can be described thus: Inhibition of norepinephrine uptake in rat brain synaptosomes (hippocampus, 3H norepinephrine). The class given is biochemical. As to conditions: for IC50: rat hippocampus synaptosomes, 3H norepinephrine about 10 nM, 37° C., read-out: Norepinephrine IC50 (inhibition of neurotransmitter uptake in synaptosomes); for inhibition of norepinephrine and serotonin uptake (in words): synaptosomes, both transmitters. The protocol: (§1) The action mechanism of a group of therapeutically much used antidepressants must be regarded as being the inhibition of the neuronal uptake of transmitter substances (norepinephrine and/or serotonin). These properties were utilized in biological test models for characterizing potential antidepressants (inhibition of neurotransmitter uptake in rat brain synaptosomes):
(§2) Hippocampus and cortex from rat brain were prepared, and were homogenized in 0.32M sucrose solution. By means of differential centrifuging, synaptosomes were obtained, and these were suspended in buffer solution. The synaptosomes are able actively to take up added neurotransmitter substances (eg. norepinephrine or serotonine) from the surrounding medium. It is possible to antagonize this process by uptake inhibitors, as a function of concentration. Various concentrations of the test substances were added to the synaptosomes, and the mixtures were then incubated with ^3 H norepinephrine (hippocampus) or ^3 H serotonin (cortex) at 37° C. The substrate concentration was about 10 nM. The uptake was terminated by diluting the mixture with ice-cooled buffer solution, after which the synaptosomes were separated off by centrifuging and the ^3 H activity in the sediment was measured. A blank value was determined by incubation at 0° C.
(§3) From the inhibitory values determined for various inhibitor concentrations compared with the control, the mean inhibitory concentration (IC50) was calculated by linear regression following logit-log transformation.

Test [2] deals with serotonin uptake. The test can be described thus: Inhibition of serotonin uptake in rat brain synaptosomes (cortex, 3H serotonin). The class given is biochemical. To be noted: 3H serotonin about 10 nM, 37° C., read-out: Serotonin IC50 (inhibition of neurotransmitter uptake in synaptosomes). The procedure:
as §1, §2, §3

Each structure is given as a SMILES string. Structures can show the parent of a compound that is named as a salt.

For `CN(C)CCCN1c2ccccc2CCc2ccccc21` [Imipramine, reference compound], in test [1], the IC50 was found to be 14 nM; the “inhibition of norepinephrine and serotonin uptake (in words)” value (“inhibition” for short) is “inhibits both norepinephrine uptake and serotonin uptake at low concentration”. In addition, the half-inhibitory concentration (IC50) in test [2] was 130 nM.

With `Clc1ccccc1OCC1(c2ccccc2)CCNCCO1` (stereo not drawn) [Example 2, 7-phenyl-7-(2-chlorophenoxymethyl)-hexahydro-1,4-oxazepine hydrochloride], the figures for the IC50 in test [1] and in test [2] were 2.8 nM and 460 nM, respectively.

`c1ccc(OCC2(c3ccccc3)CCNCCO2)cc1` (stereo not drawn) [Example 1, 7-phenyl-7-phenoxymethyl-hexahydro-1,4-oxazepine hydrochloride]: the IC50 in test [1] amounted to 15 nM; in test [2] it was 190 nM.

Turning to `CN1CCOC(COc2ccccc2Cl)(c2ccccc2)CC1` (stereo not drawn) [Example 7], the IC50 was found to be 98 nM in test [1] and 300 nM in test [2]. The “inhibition” value in test [1] was “inhibit the uptake of both transmitters at an equally low concentration”.

For `Clc1ccc(OCC2(c3ccccc3)CCNCCO2)cc1` (stereo not drawn) [Example 4, 7-phenyl-7-(4-chlorophenoxymethyl)-hexahydro-1,4-oxazepine], in test [1], the IC50 was found to be 74 nM; the “inhibition” value is given as “inhibit the uptake of both transmitters at an equally low concentration”. In addition, in test [2], the IC50 amounted to 39 nM.

As for `COc1ccc(OCC2(c3ccccc3)CCNCCO2)cc1.Cl` (stereo not drawn) [Example 5, 7-phenyl-7-(4-methoxyphenoxymethyl)-hexahydro-1,4-oxazepine hydrochloride], in test [1], the IC50 was determined as 86 nM; the “inhibition” value was “inhibit the uptake of both transmitters at an equally low concentration”. Further, the IC50 in test [2] is 100 nM.

Turning to `COc1ccccc1OCC1(c2ccccc2)CCNCCO1` (stereo not drawn) [Example 3, 7-phenyl-7-(2-methoxyphenoxymethyl)-hexahydro-1,4-oxazepine hydrochloride], the values for the IC50 in test [1] and in test [2] were 5.9 nM and 190 nM, respectively.

One may read the IC50 as the point on the concentration scale where inhibition reaches its midpoint.
